Each structure is given as a SMILES string. pIC50: −log10 of the molar value. Where “and” joins values, the source holds several entries; their conditions need not be identical. Equal values may be shown once. Entries after “also recorded” stand apart in the source; their conditions may differ.

The target in assay [1] is human mitochondrial aldehyde dehydrogenase (ALDH-2) (Homo sapiens (Human), UniProt P05091). To be noted: U.S. Pat. Nos. 5,624,910 and 6,121,010; cited from earlier work.
A further assay deals with recombinant human ALDH2 (Homo sapiens (Human), UniProt P05091). Kind of assay: ALDH2 assay (NADH formation). The class given is biochemical. The following applies: 10 nM recombinant human ALDH2, 150 uM formaldehyde, 60 min pre-incubation; read-out: IC50 hALDH2. The protocol:
Standard ALDH2 reaction mixtures contained 150 uM formaldehyde, 2.5 mM NAD^+, 10 mM MgCl2 and 10 nM recombinant human ALDH2 in 50 mM Hepes buffer, pH 7.4, 0.01% Tween 20 in a final volume of 50 ul using 384-well plates. After 60 min of pre-incubation of compound with ALDH2 and formaldehyde, the reaction was started by adding NAD+ and the reaction mixture was allowed to proceed for 90 minutes. Activity of the enzyme was determined by monitoring NADH formation using Perkin-Elmer Envision Reader with excitation and emission wavelengths set at 340 and 460 nm, respectively.
(§1) Note: IC50 refers to the concentration of a compound that inhibits a reaction by 50%. In the case of competitive inhibition, IC50=2Ki when the substrate is present at the Km concentration, as per the relationship: Ki=IC50/[1+(substrate concentration/Km)].

The target in a further assay is hMAO-A (Homo sapiens (Human), UniProt P21397). The assay is described as follows: MAO-A assay (luminogenic MAO substrate). To be noted: microsome contained MAO-A, 160 uM substrate, 20 min pre-incubation; unit inferred. Format: biochemical. The protocol: (§2) MAO assays included luminogenic MAO substrate, reaction buffers, Luciferin Detection and the reconstitution buffer with esterase. Standard MAO reaction mixtures included microsome contained MAO-A (2 ug) or MAO-B (10 ug), 160 uM substrate for MAO-A or 16 uM substrate for MAO-B, MAO-A buffer (100 mM Hepes buffer, pH 7.5, 5% glycerol) or MAO-B buffer (100 mM Hepes, pH 7.5, 5% glycerol, 10% dimethyl sulfoxide) in a final volume of 30 ul. After 20 minutes of pre-incubation of the enzyme with compounds, the reaction was initiated by adding enzyme substrate and the reaction was allowed to proceed for 60 minutes. Reconstituted Luciferin Detection Reagent (30 ul) was then added is added to simultaneously stop the MAO reaction and convert the methyl ester derivative to luciferin and produce light. The amount of light produced is directly proportional to the activity of MAO. The mixtures were further incubated for 20 minutes and activity of the enzyme was determined using Perkin-Elmer Envision Reader.
as §1

For the next assay, the target named is hMAO-B (Homo sapiens (Human), UniProt P27338). The assay is described as follows: MAO-B assay (luminogenic MAO substrate). The class given is biochemical. The following applies: microsome contained MAO-B, 16 uM substrate, 20 min pre-incubation; unit inferred. The protocol: as §2, §1
Assay [2] concerns cocaine dependency and relapse. The assay is described as follows: Operant cocaine self administration and reinstatement model in rats. The following applies: p.o.
Another assay has as its system ethanol intake. To be noted: literature (Keung and Vallee); cited from earlier work.

hMAO-B, sequence (P27338 whole entry): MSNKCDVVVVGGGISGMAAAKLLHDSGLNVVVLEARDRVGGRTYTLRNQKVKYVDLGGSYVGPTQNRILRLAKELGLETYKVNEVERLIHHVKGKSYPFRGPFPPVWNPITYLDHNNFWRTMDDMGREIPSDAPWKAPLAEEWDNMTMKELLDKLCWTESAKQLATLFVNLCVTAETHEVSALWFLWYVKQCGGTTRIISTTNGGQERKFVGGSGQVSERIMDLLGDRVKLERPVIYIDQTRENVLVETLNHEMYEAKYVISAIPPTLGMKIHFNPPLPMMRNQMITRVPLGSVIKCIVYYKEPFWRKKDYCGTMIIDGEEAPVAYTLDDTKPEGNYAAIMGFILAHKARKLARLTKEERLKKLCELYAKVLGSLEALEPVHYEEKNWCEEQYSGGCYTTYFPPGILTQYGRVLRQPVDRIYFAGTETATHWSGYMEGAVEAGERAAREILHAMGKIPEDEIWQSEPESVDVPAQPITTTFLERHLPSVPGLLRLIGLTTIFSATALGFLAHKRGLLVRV
recombinant human ALDH2, sequence (P05091 18-517): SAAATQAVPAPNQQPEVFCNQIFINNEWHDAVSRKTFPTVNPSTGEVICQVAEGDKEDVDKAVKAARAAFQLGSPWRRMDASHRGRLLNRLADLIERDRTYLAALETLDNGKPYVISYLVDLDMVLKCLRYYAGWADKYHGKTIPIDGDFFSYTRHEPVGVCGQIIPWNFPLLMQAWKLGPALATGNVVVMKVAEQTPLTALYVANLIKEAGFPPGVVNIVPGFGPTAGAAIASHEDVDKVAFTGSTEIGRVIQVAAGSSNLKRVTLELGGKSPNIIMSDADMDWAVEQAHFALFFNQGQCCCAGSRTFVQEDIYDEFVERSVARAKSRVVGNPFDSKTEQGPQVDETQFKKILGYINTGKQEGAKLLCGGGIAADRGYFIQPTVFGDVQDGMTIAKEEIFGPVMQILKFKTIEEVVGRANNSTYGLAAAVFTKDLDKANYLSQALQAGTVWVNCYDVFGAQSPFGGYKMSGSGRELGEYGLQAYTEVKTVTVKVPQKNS
hMAO-A, sequence (P21397 whole entry): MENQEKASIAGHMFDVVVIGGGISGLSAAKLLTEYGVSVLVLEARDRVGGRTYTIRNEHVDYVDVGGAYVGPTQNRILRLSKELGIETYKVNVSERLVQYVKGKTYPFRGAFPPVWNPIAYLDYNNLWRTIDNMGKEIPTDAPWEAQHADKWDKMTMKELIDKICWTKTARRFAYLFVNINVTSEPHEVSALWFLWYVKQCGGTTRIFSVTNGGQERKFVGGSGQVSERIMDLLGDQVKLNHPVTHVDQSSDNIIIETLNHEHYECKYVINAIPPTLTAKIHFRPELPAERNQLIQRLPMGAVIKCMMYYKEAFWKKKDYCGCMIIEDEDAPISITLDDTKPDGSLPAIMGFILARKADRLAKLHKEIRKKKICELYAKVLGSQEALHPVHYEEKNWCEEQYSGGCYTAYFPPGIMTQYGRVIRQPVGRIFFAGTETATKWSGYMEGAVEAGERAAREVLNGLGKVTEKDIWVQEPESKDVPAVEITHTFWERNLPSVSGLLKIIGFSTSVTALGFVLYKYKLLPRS
human mitochondrial aldehyde dehydrogenase (ALDH-2), sequence (P05091 18-517): as the sequence (P05091 18-517) above

Turning to `O=c1c(-c2ccc(O)cc2)coc2cc(O[C@@H]3O[C@H](CO)[C@@H](O)[C@H](O)[C@H]3O)ccc12` [Daidzin, daidzin], the “inhibition of ALDH-2” value in assay [1] is “potent and selective inhibitors”.
Take `CC1(C(=O)N2CC(C#Cc3ccc4c(=O)c(-c5ccc(NS(C)(=O)=O)cc5)coc4c3)C2)COC1` [N-(4-(7-((1-(3-methyloxetane-3-carbonyl)azetidin-3-yl)ethynyl)-4-oxo-4H-chromen-3-yl)phenyl)methanesulfonamide]: the pIC50 (as a rule, −log10 of the IC50, conventionally taken in molar units) on recombinant human ALDH2 is 8.22; at hMAO-A it was < 3.89; on hMAO-B it was < 3.89.
For `CS(=O)(=O)Nc1ccc(-c2coc3cc(C#CC4CN(C(=O)C5CCC5)C4)ccc3c2=O)cc1` [N-(4-(7-((1-(cyclobutanecarbonyl)azetidin-3-yl)ethynyl)-4-oxo-4H-chromen-3-yl)phenyl)methanesulfonamide], the pIC50 at recombinant human ALDH2 was 8.40; at hMAO-A it was < 3.89; against hMAO-B it was < 3.89.
For the compound `CS(=O)(=O)Nc1ccc(-c2coc3cc(C#CC4CN(C(=O)C5CC5)C4)ccc3c2=O)cc1` [N-(4-(7-((1-(cyclopropanecarbonyl)azetidin-3-yl)ethynyl)-4-oxo-4H-chromen-3-yl)phenyl)methanesulfonamide], the values for the pIC50 on recombinant human ALDH2, against hMAO-A and against hMAO-B were 8.30, < 3.89 and < 3.89, respectively. Besides, the “reduced cocaine dependency, as reduction in the average presses of the active lever” value in assay [2] (2.5 mg/Kg, 2 hour pre-treatment) is listed as 70%; in assay [2] (5.0 mg/Kg, 2 hour pre-treatment), 60%; in assay [2] (10.0 mg/kg, 1 hour pre-treatment), 87%.
On to `CS(=O)(=O)Nc1ccc(-c2coc3cc(C#CC4CCN(C(=O)C5CC5)CC4)ccc3c2=O)cc1` [N-(4-(7-((1-(cyclopropanecarbonyl)piperidin-4-yl)ethynyl)-4-oxo-4H-chromen-3-yl)phenyl)methanesulfonamide], for which the results for the pIC50 on recombinant human ALDH2, on hMAO-A and against hMAO-B were 8.19, < 3.89 and < 3.89, respectively.
As to `CS(=O)(=O)Nc1ccc(-c2coc3cc(C#CC4(N)CCCCC4)ccc3c2=O)cc1` [N-(4-(7-((1-aminocyclohexyl)ethynyl)-4-oxo-4H-chromen-3-yl)phenyl)methanesulfonamide], the negative-log IC50 (pIC50) at recombinant human ALDH2 is 6.28; on hMAO-A, < 3.89; against hMAO-B, < 3.89.
For `CS(=O)(=O)Nc1ccc(-c2coc3cc(C#CC4(O)CCCCC4)ccc3c2=O)cc1` [N-(4-(7-((1-hydroxycyclohexyl)ethynyl)-4-oxo-4H-chromen-3-yl)phenyl)methanesulfonamide], the values for the pIC50 at recombinant human ALDH2, on hMAO-A and at hMAO-B were 5.77, < 3.89 and < 3.89, respectively.
In the case of `CS(=O)(=O)Nc1ccc(-c2coc3cc(C#CC4(O)CCCC4)ccc3c2=O)cc1` [N-(4-(7-((1-hydroxycyclopentyl)ethynyl)-4-oxo-4H-chromen-3-yl)phenyl)methanesulfonamide], the negative-log IC50 (pIC50) was 6.41 and 6.81 on recombinant human ALDH2; < 3.89 at hMAO-A; < 3.89 against hMAO-B.
With `CC(C)CN1CC(C#Cc2ccc3c(=O)c(-c4ccc(NS(C)(=O)=O)cc4)coc3c2)C1` [N-(4-(7-((1-isobutylazetidin-3-yl)ethynyl)-4-oxo-4H-chromen-3-yl)phenyl)methanesulfonamide], the pIC50 at recombinant human ALDH2 was 6.96; at hMAO-A, < 3.89; against hMAO-B, < 3.89.
Turning to `CC(C)n1cncc1C#Cc1ccc2c(=O)c(-c3ccc(NS(C)(=O)=O)cc3)coc2c1` [N-(4-(7-((1-isopropyl-1H-imidazol-5-yl)ethynyl)-4-oxo-4H-chromen-3-yl)phenyl)methanesulfonamide], the pIC50 is 8.15 at recombinant human ALDH2, < 3.89 on hMAO-A and < 3.89 against hMAO-B.
On to `Cn1cnc(C#Cc2ccc3c(=O)c(-c4ccc(NS(C)(=O)=O)cc4)coc3c2)c1` [N-(4-(7-((1-methyl-1H-imidazol-4-yl)ethynyl)-4-oxo-4H-chromen-3-yl)phenyl)methanesulfonamide], for which the pIC50 at recombinant human ALDH2 was 7.02; against hMAO-A it was < 4.06; against hMAO-B, < 3.89.
For `Cn1cncc1C#Cc1ccc2c(=O)c(-c3ccc(NS(C)(=O)=O)cc3)coc2c1` [N-(4-(7-((1-methyl-1H-imidazol-5-yl)ethynyl)-4-oxo-4H-chromen-3-yl)phenyl)methanesulfonamide] the same measures were > 8.31, < 3.89 and 6.44.
Consider `CS(=O)(=O)Nc1ccc(-c2coc3cc(C#CC4CNC4)ccc3c2=O)cc1` [N-(4-(7-(azetidin-3-ylethynyl)-4-oxo-4H-chromen-3-yl)phenyl)methanesulfonamide], for which the figures for the pIC50 at recombinant human ALDH2, against hMAO-A and against hMAO-B were 6.58, < 3.89 and < 4.03, respectively.
Taken in the same sequence, the figures for `CS(=O)(=O)Nc1ccc(-c2coc3cc(C#CC4CC4)ccc3c2=O)cc1` [N-(4-(7-(cyclopropylethynyl)-4-oxo-4H-chromen-3-yl)phenyl)methanesulfonamide] were 7.24, < 4.89 and < 4.89.
Taken in the same sequence, the figures for `CS(=O)(=O)Nc1ccc(-c2coc3cc(C#CC4CN(C(=O)OC5CCCC5)C4)ccc3c2=O)cc1` [cyclopentyl-3-((3-(4-(methylsulfonamido)phenyl)-4-oxo-4H-chromen-7-yl)ethynyl)azetidine-1-carboxylate] were 8.05, < 3.89 and < 3.89.
On to `O=c1c(-c2ccc(O)cc2)coc2cc(O)ccc12` [daidzein], for which the suppressing ethanol intake entry with ethanol intake was “effective in suppressing ethanol intake; also recorded: effective in suppressing ethanol uptake”.
For the compound `CC(C)(C)OC(=O)NC1(C(=O)N2CC(C#Cc3ccc4c(=O)c(-c5ccc(NS(C)(=O)=O)cc5)coc4c3)C2)CCC1` [tert-butyl 1-(3-((3-(4-(methylsulfonamido)-phenyl)-4-oxo-4H-chromen-7-yl)ethynyl)azetidine-1-carbonyl)-cyclobutylcarbamate], the negative logarithm of the IC50 (pIC50) on recombinant human ALDH2 is 8.22; against hMAO-A, < 3.89; against hMAO-B it was < 3.89.
With `CC(C)(C)OC(=O)NC1(C(=O)N2CC(C#Cc3ccc4c(=O)c(-c5ccc(NS(C)(=O)=O)cc5)coc4c3)C2)CC1` [tert-butyl 1-(3-((3-(4-(methylsulfonamido)phenyl)-4-oxo-4H-chromen-7-yl)ethynyl)azetidine-1-carbonyl)cyclopropylcarbamate], the pIC50 on recombinant human ALDH2 is 8.30; at hMAO-A it was 3.96; at hMAO-B it was < 3.89.
As for `CC(C)(C)OC(=O)N1CC(C#Cc2ccc3c(=O)c(-c4ccc(NS(C)(=O)=O)cc4)coc3c2)C1` [tert-butyl 3-((3-(4-(methylsulfonamido)phenyl)-4-oxo-4H-chromen-7-yl)ethynyl)azetidine-1-carboxylate], the figures for the pIC50 on recombinant human ALDH2, against hMAO-A and against hMAO-B were 8.05, < 3.89 and < 3.89, respectively.
For `CC(C)(C)OC(=O)N1CCC(C#Cc2ccc3c(=O)c(-c4ccc(NS(C)(=O)=O)cc4)coc3c2)CC1` [tert-butyl 4-((3-(4-(methylsulfonamido)phenyl)-4-oxo-4H-chromen-7-yl)ethynyl)piperidine-1-carboxylate], the negative-log IC50 (pIC50) at recombinant human ALDH2 was 7.07; against hMAO-A it was < 3.89; against hMAO-B, < 3.89.
On to `CN(C(=O)OC(C)(C)C)C1(C(=O)N2CC(C#Cc3ccc4c(=O)c(-c5ccc(NS(C)(=O)=O)cc5)coc4c3)C2)CC1` [tert-butyl (1-(3-((3-(4-(methylsulfonamido)-phenyl)-4-oxo-4H-chromen-7-yl)ethynyl)azetidine-1-carbonyl)cyclopropyl)-methylcarbamate], for which the pIC50 is 8.64 on recombinant human ALDH2, < 3.89 on hMAO-A and < 3.89 against hMAO-B.
